{
  "source": "patent US6124323A",
  "about": "“4-substituted piperidine analogs and their use as subtype selective NMDA receptor antagonists” (Warner-Lambert Company, priority 1998, dated 2000)",
  "key": {"[1]": {"system": "d-amphetamine induced stimulation", "conditions": "injected into rat nucleus accumbens or striatum; cited from earlier work"}, "[2]": {"system": "PCP and MK801-induced behavioral arousal", "conditions": "in vivo; cited from earlier work"}, "[3]": {"molecular_target": "T1, NMDA receptor subunits 1A/2B (Rattus norvegicus, UniProt P35439+Q00960)", "T1 construct": "expressed in transfected cells; host or cells: Xenopus laevis oocytes (cRNA injection; clones from Dr. P. H. Seeburg)", "T1 sequence (Q00960 27-1482, other chains not shown)": "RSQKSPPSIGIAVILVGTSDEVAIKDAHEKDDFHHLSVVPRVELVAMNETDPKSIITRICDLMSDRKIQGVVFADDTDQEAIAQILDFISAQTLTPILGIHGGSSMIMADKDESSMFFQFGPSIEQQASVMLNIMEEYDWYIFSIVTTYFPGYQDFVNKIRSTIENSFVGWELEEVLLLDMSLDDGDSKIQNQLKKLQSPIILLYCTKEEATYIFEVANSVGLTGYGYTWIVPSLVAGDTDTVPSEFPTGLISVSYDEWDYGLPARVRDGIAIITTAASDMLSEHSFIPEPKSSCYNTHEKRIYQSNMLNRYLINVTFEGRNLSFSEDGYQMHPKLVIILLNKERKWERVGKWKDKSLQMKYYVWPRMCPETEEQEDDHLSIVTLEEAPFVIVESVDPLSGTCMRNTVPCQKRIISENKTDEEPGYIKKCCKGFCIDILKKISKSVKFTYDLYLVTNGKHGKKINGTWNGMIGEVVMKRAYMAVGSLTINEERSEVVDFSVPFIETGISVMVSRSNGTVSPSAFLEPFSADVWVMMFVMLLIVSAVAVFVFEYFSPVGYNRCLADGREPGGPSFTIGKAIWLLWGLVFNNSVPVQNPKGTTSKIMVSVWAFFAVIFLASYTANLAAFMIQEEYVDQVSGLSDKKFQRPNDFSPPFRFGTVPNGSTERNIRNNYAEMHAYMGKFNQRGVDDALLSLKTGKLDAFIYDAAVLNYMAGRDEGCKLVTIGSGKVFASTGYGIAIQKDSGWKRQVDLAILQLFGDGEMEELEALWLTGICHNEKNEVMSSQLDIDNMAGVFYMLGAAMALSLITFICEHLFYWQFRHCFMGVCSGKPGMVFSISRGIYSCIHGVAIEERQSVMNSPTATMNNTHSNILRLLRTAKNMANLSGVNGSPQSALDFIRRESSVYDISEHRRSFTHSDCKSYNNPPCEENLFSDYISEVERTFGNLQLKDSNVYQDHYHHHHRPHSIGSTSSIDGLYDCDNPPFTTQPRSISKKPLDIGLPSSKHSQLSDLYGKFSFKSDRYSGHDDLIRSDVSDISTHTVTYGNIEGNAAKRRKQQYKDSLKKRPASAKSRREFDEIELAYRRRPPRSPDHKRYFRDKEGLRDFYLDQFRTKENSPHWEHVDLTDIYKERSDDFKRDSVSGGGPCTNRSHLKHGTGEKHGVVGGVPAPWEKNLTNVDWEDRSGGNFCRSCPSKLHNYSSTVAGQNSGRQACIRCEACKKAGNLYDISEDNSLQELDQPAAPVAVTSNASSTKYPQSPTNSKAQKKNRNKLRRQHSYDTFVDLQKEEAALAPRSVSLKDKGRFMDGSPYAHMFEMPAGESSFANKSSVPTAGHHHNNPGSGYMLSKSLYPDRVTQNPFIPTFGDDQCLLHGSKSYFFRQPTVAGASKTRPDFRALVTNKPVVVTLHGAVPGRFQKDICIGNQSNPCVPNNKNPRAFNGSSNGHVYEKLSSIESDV", "assay": "Electrophysiological assay at NMDA receptor subunits expressed in Xenopus oocytes, 1A/2B", "format": "cell-based", "conditions": "Xenopus oocytes; glutamate 100 μm and glycine 1-100 μm; read-out: Subunits IC50, 1A/2B", "how_it_was_run": "(§1)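 Two-electrode voltage clamp of Xenopus oocytes injected with rat NR1A plus NR2A, 2B or 2C cRNA (1:1), recorded 3–21 days post-injection in Ringer's, pH 7.4. Currents evoked by glutamate (100 μm) with glycine (1–100 μm); antagonist applied by bath perfusion at rising concentrations, IC50 from logistic fit or linear regression for incomplete curves.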"}, "[4]": {"system": "Maximal Electroshock-induced Seizures", "assay": "Maximal electroshock-induced seizures (MES)", "format": "in vivo", "conditions": "Mus musculus; mice; 50 mA, 60 pulses/sec, 1 sec", "description": "Seizures were induced by application of current (50 mA, 60 pulses/sec, 0.8 sec pulse width, 1 sec duration, d.c.) through saline-coated corneal electrodes using a Ugo Basile ECT device (Model 7801). […] A tonic seizure was defined as a hindlimb extension in excess of 90 degrees from the plane of the body."}, "[5]": {"molecular_target": "T2, NMDA receptor subunits 1A/2C (Rattus norvegicus, UniProt P35439+Q00961)", "T2 construct": "expressed in transfected cells; host or cells: Xenopus laevis oocytes (cRNA injection; clones from Dr. P. H. Seeburg)", "T2 sequence (Q00961 20-1237, other chains not shown)": "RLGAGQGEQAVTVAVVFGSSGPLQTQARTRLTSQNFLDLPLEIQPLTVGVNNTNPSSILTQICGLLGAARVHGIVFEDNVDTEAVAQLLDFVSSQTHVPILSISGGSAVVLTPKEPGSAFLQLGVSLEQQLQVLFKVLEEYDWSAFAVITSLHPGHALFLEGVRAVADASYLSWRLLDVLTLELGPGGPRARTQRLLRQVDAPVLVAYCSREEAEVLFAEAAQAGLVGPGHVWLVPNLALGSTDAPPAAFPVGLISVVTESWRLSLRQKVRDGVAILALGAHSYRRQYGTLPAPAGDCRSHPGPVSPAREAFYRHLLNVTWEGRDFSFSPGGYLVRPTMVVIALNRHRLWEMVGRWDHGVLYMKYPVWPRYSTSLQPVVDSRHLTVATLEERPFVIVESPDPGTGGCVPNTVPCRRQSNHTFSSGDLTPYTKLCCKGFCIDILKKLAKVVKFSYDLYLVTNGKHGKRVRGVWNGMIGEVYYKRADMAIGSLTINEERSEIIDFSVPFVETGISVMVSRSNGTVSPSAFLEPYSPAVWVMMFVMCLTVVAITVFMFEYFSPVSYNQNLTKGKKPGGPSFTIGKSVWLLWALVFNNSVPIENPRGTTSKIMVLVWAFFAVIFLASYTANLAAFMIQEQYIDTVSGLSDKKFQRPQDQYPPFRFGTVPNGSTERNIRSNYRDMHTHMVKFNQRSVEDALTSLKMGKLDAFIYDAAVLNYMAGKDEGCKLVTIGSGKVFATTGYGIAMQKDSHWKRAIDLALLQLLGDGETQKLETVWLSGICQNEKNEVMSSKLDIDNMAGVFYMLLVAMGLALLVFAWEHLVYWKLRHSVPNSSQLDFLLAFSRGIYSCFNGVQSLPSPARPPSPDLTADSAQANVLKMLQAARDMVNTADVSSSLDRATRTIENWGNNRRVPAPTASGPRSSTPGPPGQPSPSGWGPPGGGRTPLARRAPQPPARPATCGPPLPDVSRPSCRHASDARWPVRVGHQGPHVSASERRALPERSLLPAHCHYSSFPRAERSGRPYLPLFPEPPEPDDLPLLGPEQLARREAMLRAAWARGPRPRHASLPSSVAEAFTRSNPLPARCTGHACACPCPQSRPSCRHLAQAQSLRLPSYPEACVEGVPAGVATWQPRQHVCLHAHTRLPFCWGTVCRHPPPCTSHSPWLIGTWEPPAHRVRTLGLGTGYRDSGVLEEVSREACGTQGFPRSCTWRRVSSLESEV", "assay": "Electrophysiological assay at NMDA receptor subunits expressed in Xenopus oocytes, 1A/2C", "format": "cell-based", "conditions": "Xenopus oocytes; glutamate 100 μm and glycine 1-100 μm; read-out: Subunits IC50, 1A/2C", "how_it_was_run": "as §1"}, "[6]": {"system": "focal ischemia (MCA occlusion)", "assay": "Induction of focal ischemia (MCA occlusion), infarct volume", "format": "in vivo, rats", "conditions": "for Mean Infarct Volume: mean ± S.E.M.", "method": "Induction of Focal Ischemia\nRats were intubated and maintained under anesthesia with 2% of halothane. Body temperature was maintained at 37.5° C. during surgery by means of a warming pad and a rectal probe connected to the control unit. The common carotid arteries (CCA) were isolated, and a loose silk ligature was placed around each CCA. A vertical skin incision was made between the left orbit and the auditory canal. The posterior part of the zygoma was removed and a small opening (2.0-2.5 mm) was drilled dorsorostrally to the foramen ovale under constant saline irrigation. The dura was opened with a microsurgical hook and the brain gently retracted to expose the bifurcation of the internal carotid artery and the middle cerebral artery (MCA). The ipsilateral CCA was ligated and the MCA coagulated from its origin to the olfactory tract. The contralateral CCA was occluded with an arterial clip. All cuts were sutured and an i.v. line was connected to an infusion pump for delivery of the compound of the invention. Two hours after MCA occlusion, the clip on the contralateral CCA was removed. Rectal temperature was measured 2 hours after MCA occlusion (MCA-0)."}, "[7]": {"molecular_target": "T3, NMDA receptor subunits 1A/2A (Rattus norvegicus, UniProt P35439+Q00959)", "T3 construct": "expressed in transfected cells; host or cells: Xenopus laevis oocytes (cRNA injection; clones from Dr. P. H. Seeburg)", "T3 sequence (Q00959 20-1464 limits assumed, other chains not shown)": "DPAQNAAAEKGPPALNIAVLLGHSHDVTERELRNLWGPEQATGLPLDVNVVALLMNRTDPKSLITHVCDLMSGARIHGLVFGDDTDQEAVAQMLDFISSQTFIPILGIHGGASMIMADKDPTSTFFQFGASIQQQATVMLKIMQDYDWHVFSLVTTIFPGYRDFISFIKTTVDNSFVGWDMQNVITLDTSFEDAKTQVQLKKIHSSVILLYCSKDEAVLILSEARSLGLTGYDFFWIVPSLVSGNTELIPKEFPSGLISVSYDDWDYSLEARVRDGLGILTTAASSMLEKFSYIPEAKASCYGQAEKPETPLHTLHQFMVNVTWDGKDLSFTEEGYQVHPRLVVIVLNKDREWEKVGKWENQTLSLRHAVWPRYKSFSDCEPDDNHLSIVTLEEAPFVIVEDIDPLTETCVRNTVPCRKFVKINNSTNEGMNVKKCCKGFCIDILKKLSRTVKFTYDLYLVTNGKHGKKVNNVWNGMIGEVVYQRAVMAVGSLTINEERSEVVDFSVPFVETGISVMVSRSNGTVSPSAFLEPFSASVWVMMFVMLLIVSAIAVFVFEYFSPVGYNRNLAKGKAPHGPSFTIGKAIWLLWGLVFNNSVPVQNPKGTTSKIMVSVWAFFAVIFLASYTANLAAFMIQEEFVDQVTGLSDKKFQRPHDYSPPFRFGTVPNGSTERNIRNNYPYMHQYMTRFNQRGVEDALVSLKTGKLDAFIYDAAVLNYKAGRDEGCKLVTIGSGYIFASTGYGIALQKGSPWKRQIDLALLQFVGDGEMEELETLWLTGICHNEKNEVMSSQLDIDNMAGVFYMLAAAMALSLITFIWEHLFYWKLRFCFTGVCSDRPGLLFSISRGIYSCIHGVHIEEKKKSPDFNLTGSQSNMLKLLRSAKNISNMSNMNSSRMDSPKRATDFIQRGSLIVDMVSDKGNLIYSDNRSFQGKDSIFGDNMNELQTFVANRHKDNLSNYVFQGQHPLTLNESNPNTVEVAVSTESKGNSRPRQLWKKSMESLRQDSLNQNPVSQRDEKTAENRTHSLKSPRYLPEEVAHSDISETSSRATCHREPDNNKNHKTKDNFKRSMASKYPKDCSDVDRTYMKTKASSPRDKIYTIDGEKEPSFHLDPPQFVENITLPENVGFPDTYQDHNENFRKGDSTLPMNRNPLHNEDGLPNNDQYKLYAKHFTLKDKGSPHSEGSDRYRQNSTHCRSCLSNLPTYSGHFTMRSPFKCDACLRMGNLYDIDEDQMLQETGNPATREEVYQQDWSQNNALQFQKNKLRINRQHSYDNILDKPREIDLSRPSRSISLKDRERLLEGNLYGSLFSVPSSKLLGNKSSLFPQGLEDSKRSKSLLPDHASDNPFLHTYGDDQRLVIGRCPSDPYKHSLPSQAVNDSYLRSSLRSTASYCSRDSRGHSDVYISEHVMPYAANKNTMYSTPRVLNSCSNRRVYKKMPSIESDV", "assay": "Electrophysiological assay at NMDA receptor subunits expressed in Xenopus oocytes, 1A/2A", "format": "cell-based", "conditions": "glutamate 100 μm and glycine 1-100 μm", "how_it_was_run": "as §1"}, "[8]": {"system": "anxiety", "conditions": "in vivo; cited from earlier work"}, "[9]": {"system": "micturition", "conditions": "rat; cited from earlier work"}, "[10]": {"system": "Parkinson's disease", "conditions": "at plasma levels leading to NMDA receptor antagonism; cited from earlier work"}},
  "note": "Where a name gives a salt, the structure may show the parent alone.",
  "data": [
    {"smiles": "O=C(O)c1cc(O)c2c(Cl)cc(Cl)cc2n1", "note": "[5,7-dichlorokynurenic acid]", "values": [
      {"measurement": "antagonism of d-amphetamine induced stimulation", "setting": "[1]", "value": "selectively antagonize d-amphetamine induced stimulation when injected into rat nucleus accumbens but not in striatum"}
    ]},
    {"smiles": "N[C@@H]1CCN(O)C1=O", "note": "[(+) HA-966]", "values": [
      {"measurement": "antagonism of d-amphetamine induced stimulation", "setting": "[1]", "value": "selectively antagonize d-amphetamine induced stimulation when injected into rat nucleus accumbens but not in striatum"},
      {"measurement": "block of PCP and MK801-induced behavioral arousal", "setting": "[2]", "value": "block PCP and MK801-induced behavioral arousal"}
    ]},
    {"smiles": "c1ccc(CC2CCN(CCOc3ccccc3)CC2)cc1", "note": "[Ex. 1, 4-Benzyl-1-(2-phenoxyethyl)piperidine]", "values": [
      {"measurement": "IC50", "setting": "[3]", "value": 0.8, "unit": "µM"},
      {"measurement": "ED50", "setting": "[4]", "value": 2, "unit": "mg/kg"},
      {"measurement": "IC50", "setting": "[5]", "value": "> 100", "unit": "µM"},
      {"measurement": "Mean Infarct Volume", "setting": "[6]; Cortex, rats, 2.5 mg/Kg i.v. bolus then 1.75 mg/Kg for 22 hours, n = 12, vehicle 120.450 ± 20.166", "value": "50.450 ± 11.428", "unit": "mm^3"},
      {"measurement": "% of Ischemia Protection", "setting": "[6]; Cortex, rats, 2.5 mg/Kg i.v. bolus then 1.75 mg/Kg for 22 hours, p = 0.0071", "value": 58, "unit": "%"},
      {"measurement": "Mean Infarct Volume", "setting": "[6]; Subcortex, rats, 2.5 mg/Kg i.v. bolus then 1.75 mg/Kg for 22 hours, n = 12, vehicle 74.462 ± 7.481", "value": "67.400 ± 6.775", "unit": "mm^3"},
      {"measurement": "% of Ischemia Protection", "setting": "[6]; Subcortex, rats, 2.5 mg/Kg i.v. bolus then 1.75 mg/Kg for 22 hours, p = 0.4936", "value": 9.5, "unit": "%"},
      {"measurement": "protection from ischemia", "setting": "[6]; table 4 and FIG. 1, 2.5 mg/Kg i.v. bolus then 1.75 mg/Kg for 22 hours", "value": "significant protection from ischemia"},
      {"measurement": "IC50", "setting": "[7]", "value": "> 100", "unit": "µM"}
    ]},
    {"smiles": "Fc1ccc(OCCN2CCC(Cc3ccc(Cl)cc3)CC2)cc1", "note": "[Ex. 25, 4-(4-Chlorobenzyl)-1-(2-(4-fluorophenoxy)ethyl)piperidine hydrobromide]", "values": [
      {"measurement": "IC50", "setting": "[3]", "value": 1, "unit": "µM"},
      {"measurement": "ED50", "setting": "[4]", "value": 4, "unit": "mg/kg"},
      {"measurement": "IC50", "setting": "[5]", "value": 80, "unit": "µM"},
      {"measurement": "Mean Infarct Volume", "setting": "[6]; Cortex, 10 mg/Kg i.v. bolus, n = 7, vehicle 114.936 ± 22.3", "value": "41.857 ± 19.984", "unit": "mm^3"},
      {"measurement": "% of Ischemia Protection", "setting": "[6]; Cortex, 10 mg/Kg i.v. bolus, p = 0.0381", "value": 64, "unit": "%"},
      {"measurement": "Mean Infarct Volume", "setting": "[6]; Subcortex, 10 mg/Kg i.v. bolus, n = 7, vehicle 81.564 ± 5675", "value": "43.343 ± 17.37", "unit": "mm^3"},
      {"measurement": "% of Ischemia Protection", "setting": "[6]; Subcortex, 10 mg/Kg i.v. bolus, p = .0320", "value": 47, "unit": "%"},
      {"measurement": "protection from ischemia", "setting": "[6]; Table 5 and FIG. 2, 10 mg/Kg i.v. bolus", "value": "significant protection from ischemia"},
      {"measurement": "IC50", "setting": "[7]", "value": 60, "unit": "µM"}
    ]},
    {"smiles": "C[C@]12N[C@H](Cc3ccccc31)c1ccccc12", "note": "[MK801]", "values": [
      {"measurement": "effect in animal models of anxiety", "setting": "[8]", "value": "effective in a variety of animal models of anxiety"},
      {"measurement": "frequency of micturition", "setting": "[9]", "value": "increased the frequency of micturition in rat"}
    ]},
    {"smiles": "NC12CC3CC(CC(C3)C1)C2", "note": "[amantadine]", "values": [
      {"measurement": "antiparkinsonian-like activity in animals", "setting": "[10]", "value": "showed antiparkinsonian-like activity in animals"}
    ]},
    {"smiles": "CC12CC3CC(C)(C1)CC(N)(C3)C2", "note": "[memantine]", "values": [
      {"measurement": "antiparkinsonian-like activity in animals", "setting": "[10]", "value": "showed antiparkinsonian-like activity in animals"}
    ]}
  ]
}
